Source: US20080131406A1, “Angiotensin I Derivatives” (NATIONAL UNVERSITY OF SINGAPORE, priority 2005, published 2008)

How the values were obtained:
[1] = system: experimentally-induced cardiac hypertrophic rats; test: Cardiac hypertrophy induced by abdominal aorta coarctation in rats; format: in vivo, Sprague Dawley (SD) rats; details: for Hypertrophy Index (ventricle weight in mg/body weight in g): aorta-coarcted rats, mean ± SEM, 10 rats
Experimental: The experimental protocol for induction of cardiac hypertrophy in rats was carried out as described by Everett et al (Hypertension, 23:587-592 (1994)). In this procedure, each rat was anaesthetized with 7% w/v chloral hydrate (0.35 g/kg, intraperitoneally). An incision was made in the ventral abdominal wall to access the suprarenal portion of the abdominal aorta. This portion of the abdominal aorta was dissected free and a blunt 23-guage needle was placed adjacent to the aorta. A ligature was placed around the blunt needle and the aorta. The blunt needle was then removed, leaving the aorta constricted to the size of the needle. The resulting coarctation resisted the normal flow of blood from the heart to the lower portion of the body and placed an extra load on the heart. This extra load causes hypertrophy of the heart, especially the left ventricle.
Following surgery, each animal was placed in a cage. The animals had access to water and rat chow ad libitum. The animals were randomly divided into the control group and treatment group. Each group consisted of 10 animals. The treatment group was orally administered various doses of angiotensin IV (95-380 nmoles/kg/day or 74-294 μg/kg/day) dissolved in 0.5 ml saline for four days commencing on the day of surgery. Control animals with coarcted abdominal aorta were administered saline instead of the angiotensin IV solution. Sham animals were animals that underwent the same surgical operations but their aortas were not coarcted.
On the fifth day following surgery, animals were anaesthetised as before. The heart of each animal was then excised, the ventricles dissected and the weight of the ventricles was determined. The index of the ventricle weight (in mg) over the body weight of the animal (in g) was taken as the index of hypertrophy. For sham-operated animals the index was around 2.6, for aorta-coarcted animas the index was above 3.7.
Data were expressed as mean ±SEM. Significant differences were determined by one-way ANOVA and post hoc Newman Kleuf test. The accepted level of significance was p<0.05. […] The effect was dose-dependent and significant anti-cardiac hypertrophic action was brought about by an oral dose of 190 nmoles/kg/day (or 147 μg/kg/day).

[2] = system: neointima formation in catheter-injured carotid artery; test: Neointima formation after balloon catheter injury of the left carotid artery in rats; format: in vivo, Sprague Dawley (SD) rats; details: for % of Lumen Occlusion by Neointima (in catheter-injured carotid artery): mean ± SEM, 6 rats
Excerpt: SD rats were subjected to left carotid artery injury by the balloon technique according to the method described by Indolfi et al (Circulation, 92:1230-1235 (1995)). In this procedure, rats were anesthetized with chloral hydrate (0.35 g/kg) and a balloon catheter (2F Fogarty, Edwards Laboratories) was introduced through the left external carotid artery into the common carotid artery. The balloon was inflated to a pressure of 2.2 kg/cm^2 by compressed carbogen gas mixture (95% O2 and 5% CO2) and passed three times (three cycles) along the common carotid artery. The catheter was removed, the left external carotid artery was ligated, and the wound was closed. Formation of neointima in the catheter-injured carotid artery occurred and slowed considerably after 14 days (Clowes and Clowes, Lab. Invest., 52:611-616 (1985)). The right common carotid artery was left intact and served as the control artery.
Following the surgery, each animal was placed in a cage. The animals had access to water and rat chow ad libitum. The animals were randomly divided into the control group and treatment group. Each group consisted of 6 animals. The treatment group was orally administered various doses of angiotensin IV (60-360 nmoles/kg/day or 46.5-279 μg/kg/day) dissolved in 0.5 ml saline for 13 days commencing on the day of surgery. Control animals were balloon catheterized animals that were administered saline instead of the angiotensin IV solution.
On the fourteenth day following balloon catheterization, animals were anesthetized as before and both the left and right common arteries of each rat were fixed by perfusion at 120 mm Hg with 100 ml of saline followed by 250 ml of 0.1 M phosphate buffer (pH 7.4) containing 4% paraformaldehyde and 1% glutaralaldehyde and processed for paraffin embedment. Sections of 10 μm thickness were prepared and stained with toluidine blue. Twenty of such sections were cut from the midportion of the artery towards the distal end and used for morphometric evaluation of neointima formation. The area of the medial smooth muscle cells, lumen, and neointima of each section was morphometrically quantitated using an image analysis system consisting of a BX40 light microscope (Olympus, Japan) fitted with a KY-F55B color video camera (JVC, Japan) and a Pentium 166 MHz/MMX microcomputer (Datamini, Singapore) installed with an Image Pro Plus 3.0 System (Media Cybernetics, USA) for Windows 95™. The extent of neointima formation was expressed as a percentage of occlusion of the lumen by the neointima.

CC[C@H](C)[C@H](NC(=O)[C@H](Cc1ccc(O)cc1)NC(=O)[C@@H](N)C(C)C)C(=O)N[C@@H](Cc1cnc[nH]1)C(=O)N1CCC[C@H]1C(=O)N[C@@H](Cc1ccccc1)C(=O)O [angiotensin IV]
Hypertrophy Index (ventricle weight in mg/body weight in g) ([1]; 95 nmole/kg/day oral for 4 days): 3.73 ± 0.04 | Hypertrophy Index (ventricle weight in mg/body weight in g) ([1]; 190 nmole/kg/day oral for 4 days, significantly different from Control (p < 0.05)): *3.23 ± 0.07 | Hypertrophy Index (ventricle weight in mg/body weight in g) ([1]; 380 nmole/kg/day oral for 4 days, significantly different from Control (p < 0.05)): *3.40 ± 0.07 | oral dose bringing about significant anti-cardiac hypertrophic action ([1]; oral, 4 days, effect dose-dependent, or 147 μg/kg/day): 190 nmol/kg/day | % of Lumen Occlusion by Neointima (in catheter-injured carotid artery) ([2]; 60 nmole/kg/day oral for 13 days): 52 ± 5% | % of Lumen Occlusion by Neointima (in catheter-injured carotid artery) ([2]; 120 nmole/kg/day oral for 13 days): 48 ± 1% | % of Lumen Occlusion by Neointima (in catheter-injured carotid artery) ([2]; 240 nmole/kg/day oral for 13 days, significantly different from Control (p < 0.05)): *43 ± 2% | % of Lumen Occlusion by Neointima (in catheter-injured carotid artery) ([2]; 360 nmole/kg/day oral for 13 days, significantly different from Control (p < 0.05)): *44 ± 2% | oral dose bringing about maximum anti-neointima action ([2]; oral for 13 days, action dose-dependent, or 186 μg/kg/day): 240 nmol/kg/day | effect on the thickness of the medial muscle layer ([2]; oral, 13 days, catheter-injured carotid artery): no significant effect
